Assays:
[1] = tested on: breast carcinoma; conditions: cited from earlier work; for percent of the rats developed cancer in 7 months / percent of the rats developed cancer in one year: rats treated with drug and a carcinogen; for percent of the rats developed cancer in 7 months: incidence at 7 months; for percent of the rats developed cancer in one year: incidence at one year; for lifetime effect in reducing the appearance of breast carcinoma: treated rats compared to other rats receiving carcinogen at the same time
[2] = tested on: mammary carcinoma; assay: Anti-mammary carcinogenic activity in female rats fed DMBA, hormone given by pellet or minipump; type: in vivo, Sprague-Dawley rats; conditions: doses that do not have undesirable side effects
Method: In tests for anti-mammary carcinogenic activity following the feeding of carcinogen to mammals, ten different estrogenic compounds were implanted in female rats fed a carcinogen. The incidence of breast cancer for each compound was determined. Rats receiving only the carcinogen were used as controls. Ethynyl estriol was obtained from Eli Lilly, Inc., Greenfield, Indiana; the other estrogens were obtained from Sigma, Inc., St. Louis, Missouri, or Steraloids, Inc., Wilton, New Hampshire.
In all of the tests, intact female Sprague-Dawley rats, obtained from Sasco, Inc., Omaha, Nebraska, at 50 to 55 days of age were used.
They were: (1) randomized upon receipt; (2) housed individually in suspended cages; (3) fed Purina Lab Chow and distilled water; and (4) the temperature was maintained within 22-23 degrees and 40-50 percent relative humidity. […]
Rats free of neoplasms were followed for one year. […] Significant differences in cancer incidence between treated and controlled groups were determined.
The differences in cancer incidence between treated and controlled groups in each experiment were determined by X2 using the Yate's correction. […] The significance of difference in mammary-carcinoma-free survival in rate-days was determined for these groups at 210 days after DMBA administration using the Mann-Whitney U Test. […]

[3] = in animals; cited from earlier work
[4] = in vitro by tissues; cited from earlier work
[5] = tested on: breast cancers induced by a carcinogenic chemical; conditions: cited from earlier work

SMILES	percent of the rats developed cancer in 7 months [1]	percent of the rats developed cancer in one year [1]	other results
C#C[C@]1(O)CC[C@H]2[C@@H]3CCc4cc(O)ccc4[C@H]3CC[C@@]21C [17 alpha ethynyl estradiol 17 beta]	90%	100%	–
C#C[C@]1(O)[C@H](O)C[C@H]2[C@@H]3CCc4cc(O)ccc4[C@H]3CC[C@@]21C [17 alpha ethynyl estriol]	–	–	risk of mammary carcinoma [2]: reduce the risk of mammary carcinoma
C[C@]12CC[C@@H]3c4cc(O)c(O)cc4CC[C@H]3[C@@H]1CC[C@@H]2O [2-OH estradiol 17 beta]	78%	94%	–
C#C[C@]1(O)CC[C@H]2[C@@H]3CCc4cc(O)ccc4[C@H]3[C@@H](OC)C[C@@]21C [11 beta methoxy 17 alpha ethynyl estradiol 17 beta]	–	–	carcinogenicity [3]: carcinogenic in animals
C[C@]12CCc3c(ccc4cc(O)ccc34)[C@@H]1CCC2=O [d-equilenin]	–	–	position of oxidation [4]: almost exclusively at the C4 (R1) position
CC/C(=C(/CC)c1ccc(O)cc1)c1ccc(O)cc1 [diethylstilbestrol]	88%	100%	–
C[C@]12CC[C@@H]3c4ccc(O)cc4CC[C@H]3[C@@H]1C[C@@H](O)[C@@H]2O [estriol]	26%	63%	inhibiting the development of breast cancers [5]: moderately effective
CC/C(=C(\c1ccccc1)c1ccc(OCCN(C)C)cc1)c1ccccc1 [tamoxifen]	78%	89%	–
COc1ccc2c(c1)CC[C@@H]1[C@@H]2CC[C@]2(C)[C@@H](O)[C@H](O)C[C@@H]12 [estriol 3-methyl ether]	–	–	lifetime effect in reducing the appearance of breast carcinoma [1]: 30-50%
C[C@]12CC[C@@H]3c4ccc(O)cc4C(=O)C[C@H]3[C@@H]1CC[C@@H]2O [6 keto estradiol, 6-keto estradiol 17 beta]	31%	61%	lifetime effect in reducing the appearance of breast carcinoma [1]: 30-50%

From patent publication EP0240717A2, “Prevention of mammary carcinoma” (The Board of Regents of the University of Nebraska, priority 1986, dated 1987)
